A word on the Tmax: it is the time from dosing to the highest level.

Data set [1] in a line: Clinical study: safety, side effects, taste, psychedelic effects (Bowdle, Bond and Lader questionnaires).
Data set [2] is described as follows: Clinical study: plasma concentrations and pharmacokinetics after (S)-ketamine OTF. Conditions: for Tmax: calculated using a PK model (NONMEM); for plasma level of the metabolite following administration of an OTF as compared to intravenous administration of 20 mg (S)-ketamine: FIGS. 3-8.

`CNC1(c2ccccc2Cl)CCCCC1=O` (racemic) [(S)-ketamine, (S)-(±)-2-(2-chlorophenyl)-2-(methylamino)cyclohexan-1-one]: in data set [1] (20 mg (S)-ketamine IV), the “Dizziness (number of adverse events)” value is on record as 4, the “Drowsiness (number of adverse events)” value amounted to 3, the “Dry eyes (number of adverse events)” value is on record as 1 and the “Headache (number of adverse events)” value worked out at 3. Besides, in data set [1] (20 mg (S)-ketamine IV), the “High blood pressure (SBP > 180 mm Hg) (number of adverse events)” value amounted to 2, the “Nausea (number of adverse events)” value came out at 2, the “Sweating (number of adverse events)” value is 1 and the “Total (number of adverse events)” value is listed as 17. The “Whistling noise in the ear (number of adverse events)” value in data set [1] (20 mg (S)-ketamine IV) was 1. Further, in data set [1] (50 mg (S)-ketamine as OTF), the “Blurred vision (number of adverse events)” value is on record as 1, the “Bradykinesia (number of adverse events)” value is 1, the “Dizziness (number of adverse events)” value is on record as 1 and the “Feeling of drunkenness (number of adverse events)” value is recorded as 2. Further, in data set [1] (50 mg (S)-ketamine as OTF), the “Headache (number of adverse events)” value stood at 1, the “Nausea (number of adverse events)” value amounted to 1 and the “Total (number of adverse events)” value came out at 7. In data set [1] (100 mg (S)-ketamine as OTF), the “Bradykinesia (number of adverse events)” value came out at 1, the “Dizziness (number of adverse events)” value worked out at 3, the “Headache (number of adverse events)” value came to 2 and the “Nausea (number of adverse events)” value is reported as 1. For the same compound, in data set [1] (100 mg (S)-ketamine as OTF), the “Numbness of the tongue (number of adverse events)” value amounted to 2 and the “Total (number of adverse events)” value is 9.

With `N[C@]1(c2ccccc2Cl)CCC[C@H](O)C1=O` [(S)-Hydroxynorketamine], the Tmax was 1.35 h in data set [2] (50 mg (S)-Ketamine OTF) and 1.82 h in data set [2] (100 mg (S)-Ketamine OTF). For the same compound, the Cmax plasma concentration in data set [2] (All data, 50 mg (S)-ketamine OTF (formulation 15)) stood at 94 ng/mL; in data set [2] (Buccally, 50 mg (S)-ketamine OTF, n=5) it was 81 ng/mL; in data set [2] (Sublingually, 50 mg (S)-ketamine OTF, n=15), 98 ng/mL. Also, the “plasma level of the metabolite following administration of an OTF as compared to intravenous administration of 20 mg (S)-ketamine” value in data set [2] is “higher”.

With `N[C@]1(c2ccccc2Cl)CCCCC1=O` [(S)-Norketamine], the values for the Tmax in data set [2] (50 mg (S)-Ketamine OTF) and in data set [2] (100 mg (S)-Ketamine OTF) were 1.02 h and 1.3 h, respectively. Also, the Cmax plasma concentration in data set [2] (All data, 2 × 50 mg (S)-ketamine OTF (formulation 15)) came out at 330 ng/mL; in data set [2] (Buccally, 2 × 50 mg (S)-ketamine OTF, n=5) it was 450 ng/mL. The “plasma level of the metabolite following administration of an OTF as compared to intravenous administration of 20 mg (S)-ketamine” value in data set [2] is recorded as “higher”.

Turning to `CNC1(c2ccccc2Cl)CCCCC1=O` (stereo not shown) [ketamine], the “plasma levels of ketamine, intravenous administration versus administration of an OTF” value in data set [2] (FIGS. 9-11) is “higher for intravenous administration”.

Source of the values: patent US11992561B2 (priority 2020, dated 2024).
